From patent US20160081912A1, “COMPOSITIONS FOR IMPROVING THE HAIR, SKIN, AND NAILS” (FYBRANDS CORP., priority 2013, published 2016) come the findings set out here.

The data set is described as follows: Solubility of cycloastragalus in water, acetone and oil carriers. It counts as physicochemical. The source says:
In certain embodiments, the disclosure provides compositions to deliver the active ingredient to the root bulb of the hair follicle. Cycloastragalus is not soluble in water. Creating a cream formulation could possibly lead to clogging of pores at the site of the hair follicle, which could negatively affect restoration of the follicle. In certain aspects, the present disclosure relates to delivery of cycloastragalus using oil-based formulations. Oil is absorbed into the stratum corneum and deeper layers of the skin where the root bulb cells are located.
Initial attempts at determining an appropriate oil carrier were done using either or in combination together C10-30 Cholesterol and Lanosterol esters.
Further attempts were then made in to dissolve the cycloastragalus in oil carrier.
Cycloastragalus is soluble in acetone. We evaluated the possibility that cycloastragalus could be first dissolved in acetone and then put into solution with an oil carrier. Since acetone evaporates to completion out of any open system, it could be removed leaving the cycloastragalus in solution. One should keep in mind that acetone is incredibly flammable, and methods for removing acetone should be chosen carefully.

As for `CC(C)(O)[C@@H]1CC[C@](C)([C@H]2[C@@H](O)C[C@@]3(C)[C@@H]4C[C@H](O)[C@H]5C(C)(C)[C@@H](O)CC[C@@]56C[C@@]46CC[C@]23C)O1` [Cycloastragalus, cycloastragenol], the solubility in water entry was “not soluble”. Also, the solubility in acetone result (acetone) is reported as “soluble”. Besides, where the note is “oil carrier, direct dissolution without acetone”, the “dissolving in oil carrier” value was “limited success”. The solubility in water result (listed as cycloastragalus) is “very limited results”.
